Tests used:
DPP1 in HL-60 cells = DPP1 in HL-60 cells (Homo sapiens, UniProt P53634); experiment: DPP1 Cell Single-Point Percent Inhibition Testing; format: cell-based; design: host or cells: HL-60 cells; conditions: final compound concentration 5 nM, n = 1
Outline: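 HL-60 cells in unsupplemented RPMI preincubated 60 min at 37 °C with test article (5 nM final, 0.1% DMSO), then given cell-permeable H-Gly-Phe-AFC (100 μM final) for 30 min. Fluorescence at 400/505 nm; percent inhibition versus vehicle after subtracting cell-free background and 10 μM brensocatib non-specific signal.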

human DPP1 enzyme = human DPP1 enzyme (Homo sapiens, UniProt P53634); experiment: Human DPP1 Enzyme Single-Point Percent Inhibition Testing (HL-60 lysate); format: biochemical; design: A crude lysate of HL-60 cells (ATCC; Manassas, VA) was used as a source of human DPP1 enzyme; host or cells: HL-60 cells (crude lysate); conditions: final compound concentration of 10 nM, 400 μM H-Gly-Arg-AMC, n = 1
Outline: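 Enzyme source was HL-60 cell lysate in MES pH 6.0 buffer with NaCl and DTT, pre-incubated 10 min at 37° C with 10 nM compound (final, 1% DMSO). Cleavage of 400 μM H-Gly-Arg-AMC was followed at 350/450 nm over 90 min at 37° C, and percent inhibition was taken against vehicle wells.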

human DPP1 enzyme, sequence (P53634 25-463): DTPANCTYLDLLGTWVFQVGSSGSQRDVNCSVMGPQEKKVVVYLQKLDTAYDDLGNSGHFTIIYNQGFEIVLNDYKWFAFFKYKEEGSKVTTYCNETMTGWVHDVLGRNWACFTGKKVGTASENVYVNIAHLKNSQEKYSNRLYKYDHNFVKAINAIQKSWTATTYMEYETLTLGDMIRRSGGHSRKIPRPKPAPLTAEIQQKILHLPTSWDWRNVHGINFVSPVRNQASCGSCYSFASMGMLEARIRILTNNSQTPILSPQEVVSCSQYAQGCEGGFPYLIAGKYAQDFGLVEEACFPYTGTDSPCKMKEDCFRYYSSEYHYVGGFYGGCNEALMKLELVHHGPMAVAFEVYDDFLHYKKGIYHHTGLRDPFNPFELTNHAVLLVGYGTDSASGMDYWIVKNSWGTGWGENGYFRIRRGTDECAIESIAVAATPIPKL
DPP1 in HL-60 cells, sequence (P53634 25-463): as above

Compound	inhibition at 0.005 µM (DPP1 in HL-60 cells) [%]	inhibition at 0.01 µM (human DPP1 enzyme) [%]
N#C[C@H](Cc1ccc(-c2ccc3c(n2)CCCN3)cc1F)NC(=O)[C@@H]1CNCCCO1 [Compound A119]	≤ 76.5	≤ 40
CO[C@@H]1CCNC[C@@H](C(=O)N[C@H](C#N)Cc2ccc(-c3cnc4c(n3)CCCC4)cc2)OC1 [Compound A84]	≤ 76.5	40 to 66.7
CO[C@H]1CCO[C@H](C(=O)NC(C#N)Cc2cc3c(cc2F)-c2ccc4oc(=O)n(C)c4c2CO3)CNC1 (stereo partly drawn) [Compound C17]	≤ 76.5	40 to 66.7
N#C[C@H](Cc1ccc(-c2ccc(S(=O)(=O)N3CCC3)cc2)cc1)NC(=O)[C@@H]1CNCCCCO1 [Compound 46]	≤ 76.5	≤ 40
CO[C@@H]1CCNC[C@@H](C(=O)N[C@H](C#N)Cc2ccc(-c3ccc4c(n3)CCCN4)cc2)OC1 [Compound A81]	≤ 76.5	40 to 66.7
Cn1nnc2ccc(-c3ccc(C[C@@H](C#N)NC(=O)[C@@H]4CNCCCCO4)cc3)cc21 [Compound H36]	≤ 76.5	≤ 40
N#Cc1ccc2c(c1)-c1cc(F)c(CC(C#N)NC(=O)[C@@H]3CNCCCCO3)cc1OC2 (stereo partly drawn) [Compound B29]	≤ 76.5	≤ 40
N#C[C@H](Cc1cc2c(cc1F)-c1ccc(F)cc1CO2)NC(=O)[C@@H]1CNCCCO1 [Compound B34]	≤ 76.5	40 to 66.7
CN1CCC(n2ncc3ccc(-c4ccc(C[C@@H](C#N)NC(=O)[C@@H]5CNCCCCO5)c(F)c4)cc32)CC1 [Compound H34]	≤ 76.5	≥ 66.7
C[C@@H]1NC[C@@H](C(=O)NC(C#N)Cc2cc3c(cc2F)-c2ccc4oc(=O)n(C)c4c2CO3)OC[C@H]1O (stereo partly drawn) [Compound C20]	≤ 76.5	≥ 66.7
N#Cc1ccc2c(c1)COc1cc(C[C@@H](C#N)NC(=O)[C@@H]3CNCCCCO3)c(F)cc1-2 [Compound B28]	≤ 76.5	40 to 66.7
Cn1ncc2ccc(-c3ccc(C[C@@H](C#N)NC(=O)[C@@H]4CNCCCCO4)cc3)cc21 [Compound H35]	≤ 76.5	≤ 40
CO[C@H]1CCO[C@H](C(=O)N[C@H](C#N)Cc2ccc(-c3cc4c(C)nc(C)c(C)n4c3)cc2)CNC1 [Compound A129]	76.5 to 93.9	40 to 66.7
CO[C@H]1CCO[C@H](C(=O)N[C@H](C#N)Cc2ccc(-c3ccc(S(=O)(=O)N4CCC4)cc3)cc2)CNC1 [Compound F29]	≤ 76.5	≤ 40
CO[C@@H]1CCNC[C@@H](C(=O)N[C@H](C#N)Cc2ccc(-c3ccn4ccnc4c3)cc2)OC1 [Compound H39]	≤ 76.5	40 to 66.7
CO[C@@H]1CCNC[C@@H](C(=O)N[C@H](C#N)Cc2ccc(-c3ccc4c(c3)C3(CCN(C)C3)OC4=O)cc2F)OC1 (stereo partly drawn) [Compound F14]	≤ 76.5	≥ 66.7
CO[C@@H]1CCNC[C@@H](C(=O)N[C@H](C#N)Cc2ccc(-c3ccc4c(c3)C3(CCCN(C)C3)C(=O)N4C)cc2)OC1 (stereo partly drawn) [Compound F7]	≤ 76.5	≥ 66.7
C[C@@H]1NC[C@@H](C(=O)N[C@H](C#N)Cc2ccc(-c3ccc4nnn(C)c4c3)cc2F)OC[C@@H]1O [Compound H32]	≤ 76.5	40 to 66.7
C[C@@H]1NC[C@@H](C(=O)N[C@H](C#N)Cc2ccc(-c3ccc4nnn(C)c4c3)cc2)OC[C@@H]1O [Compound H30]	≤ 76.5	≤ 40
CN1CCCC2(C1)C(=O)N(C)c1ccc(-c3ccc(C[C@@H](C#N)NC(=O)[C@@H]4CNCCCO4)c(F)c3)cc12 (stereo partly drawn) [Compound 48]	≤ 76.5	40 to 66.7
CN1CCC(n2ncc3ccc(-c4ccc(C[C@@H](C#N)NC(=O)[C@@H]5CNCCCCO5)cc4)cc32)CC1 [Compound H33]	≤ 76.5	≤ 40
CO[C@H]1CCO[C@H](C(=O)N[C@H](C#N)Cc2ccc(-c3ccc4c(c3)C3(CC4)CCN(C)CC3)cc2F)CNC1 [Compound F24]	≤ 76.5	≥ 66.7
Cn1c(=O)oc2cc3c(cc21)-c1cc(F)c(CC(C#N)NC(=O)[C@@H]2CNCCCCO2)cc1OC3 (stereo partly drawn) [Compound C25]	76.5 to 93.9	≥ 66.7
CO[C@@H]1CCNC[C@@H](C(=O)N[C@H](C#N)Cc2ccc(-c3ccc4c(c3)C3(CC4)CCN(C)CC3)cc2F)OC1 [Compound F11]	≤ 76.5	≥ 66.7

Compound	inhibition at 0.005 µM (DPP1 in HL-60 cells) [%]	inhibition at 0.01 µM (human DPP1 enzyme) [%]
CO[C@H]1CCO[C@H](C(=O)N[C@H](C#N)Cc2ccc(-c3ccc(CN4CCN(C)CC4)cc3)cc2F)CNC1 [Compound F28]	≤ 76.5	≤ 40
Cc1ncc(C)n2cc(-c3ccc(C[C@@H](C#N)NC(=O)[C@@H]4CN[C@@H](C)[C@@H](O)CO4)cc3)cc12 [Compound A134]	≤ 76.5	40 to 66.7
Cc1ncc(C)n2cc(-c3ccc(C[C@@H](C#N)NC(=O)[C@@H]4CN[C@@H](C)[C@H](O)CO4)cc3)cc12 [Compound A131]	≤ 76.5	≥ 66.7
CN1CCC(n2ncc3ccc(-c4ccc(C[C@@H](C#N)NC(=O)[C@@H]5CNCCCO5)c(F)c4)cc32)CC1 [Compound A144]	≤ 76.5	40 to 66.7
Cn1nnc2ccc(-c3ccc(C[C@@H](C#N)NC(=O)[C@@H]4CNCCCCO4)c(F)c3)cc21 [Compound H38]	≤ 76.5	≤ 40
Cc1ncc(C)n2cc(-c3ccc(C[C@@H](C#N)NC(=O)[C@@H]4CNCCCO4)cc3)cc12 [Compound A140]	76.5 to 93.9	≤ 40
C[C@@H]1NC[C@@H](C(=O)N[C@H](C#N)Cc2ccc(-c3ccc4cnn(C5CCN(C)CC5)c4c3)cc2)OC[C@H]1O [Compound H21]	≤ 76.5	≥ 66.7
CO[C@@H]1CCNC[C@@H](C(=O)N[C@H](C#N)Cc2ccc(-c3ccc(S(=O)(=O)N4CCC4)cc3)cc2F)OC1 [Compound F17]	≤ 76.5	≥ 66.7
C[C@@H]1NC[C@@H](C(=O)N[C@H](C#N)Cc2ccc(-c3ccc4cnn(C5CCN(C)CC5)c4c3)cc2)OC[C@@H]1O [Compound H27]	≤ 76.5	≤ 40
CO[C@H]1CCO[C@H](C(=O)N[C@H](C#N)Cc2ccc(-c3ccc(CN4CCN(C)CC4)cc3)cc2)CNC1 [Compound F23]	≤ 76.5	≤ 40
CO[C@@H]1CCNC[C@@H](C(=O)N[C@H](C#N)Cc2ccc(-c3cnc4c(n3)CCCC4)cc2F)OC1 [Compound A85]	≤ 76.5	≥ 66.7
CO[C@@H]1CCNC[C@@H](C(=O)N[C@H](C#N)Cc2ccc(-c3cc4c(C)nc(C)cn4c3)cc2)OC1 [Compound A80]	76.5 to 93.9	≥ 66.7
Cc1cn2cc(-c3ccc(C[C@@H](C#N)NC(=O)[C@@H]4CNCCCO4)cc3)cc2c(C)n1 [Compound A116]	≤ 76.5	≤ 40
CO[C@@H]1CCNC[C@@H](C(=O)N[C@H](C#N)Cc2ccc(-c3ccc4c(n3)CCCN4)cc2F)OC1 [Compound A83]	76.5 to 93.9	≥ 66.7
CN1CCN(Cc2ccc(-c3ccc(C[C@@H](C#N)NC(=O)[C@@H]4CNCCCCO4)c(F)c3)cc2)CC1 [Compound 45]	≤ 76.5	≤ 40
CO[C@@H]1CCNC[C@@H](C(=O)N[C@H](C#N)Cc2ccc(-c3ccc4nnn(C)c4c3)cc2)OC1 [Compound H6]	≤ 76.5	≥ 66.7
CO[C@@H]1CCNC[C@@H](C(=O)N[C@H](C#N)Cc2ccc(-c3ccc4c(c3)C3(CCCN(C)C3)C(=O)N4C)cc2F)OC1 (stereo partly drawn) [Compound F12]	≤ 76.5	≥ 66.7
CO[C@H]1CCO[C@H](C(=O)N[C@H](C#N)Cc2ccc(-c3ccc4cnn(C)c4c3)cc2)CNC1 [Compound H17]	≤ 76.5	≤ 40
Cn1ncc2ccc(-c3ccc(C[C@@H](C#N)NC(=O)[C@@H]4CNCCCCO4)c(F)c3)cc21 [Compound H37]	≤ 76.5	40 to 66.7
CO[C@H]1CCO[C@H](C(=O)N[C@H](C#N)Cc2ccc(-c3ccn4ccnc4c3)cc2)CNC1 [Compound H41]	≤ 76.5	≤ 40
CCN1C(=O)Cc2ccc(-c3ccc(C[C@@H](C#N)NC(=O)[C@@H]4CNCC(OC)CO4)c(F)c3)cc21 (stereo partly drawn) [Compound G4]	≥ 93.9	≥ 66.7
CCN1C(=O)Cc2ccc(-c3ccc(C[C@@H](C#N)NC(=O)[C@@H]4CNCC(OC)CO4)cc3)cc21 (stereo partly drawn) [Compound G3]	76.5 to 93.9	≥ 66.7
CN1CCC2(C1)OC(=O)c1ccc(-c3ccc(C[C@@H](C#N)NC(=O)[C@@H]4CNCCCCO4)cc3)cc12 (stereo partly drawn) [Compound 38]	≤ 76.5	≤ 40
CO[C@H]1CCO[C@H](C(=O)N[C@H](C#N)Cc2ccc(-c3ccc4c(c3)C3(CCN(C)C3)OC4=O)cc2F)CNC1 (stereo partly drawn) [Compound F27]	≤ 76.5	≥ 66.7

From patent publication US20260008760A1, “DIPEPTIDYL PEPTIDASE 1 INHIBITORS AND USES THEREOF” (Insmed Incorporated, priority 2024, published 2026)
